Data published in patent US20230136562A1, “SPIROUREA DERIVATIVES” (Idorsia Pharmaceuticals Ltd, priority 2020, published 2023).
Read-outs that look alike come from different tables or passages of the source.

Assays:
[1] = tested on: primary neuronal cultures from embryonic rat brains; assay: Rat oscillation assay (FLIPR, neuronal calcium oscillations); format: cell-based; details: Rattus norvegicus
How it was run: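 Cortical neurons from E18 Wistar rat embryos, cultured 8–10 days at high density, loaded with 1 μM Fluo-8 AM; calcium oscillations recorded by FLIPR once per second in Mg-free HBSS with 2 mM CaCl2, 20 mM HEPES, pH 7.4. Two acquisitions ("Acute", 500 sec, compound added at 250 sec; "20 min"), ± Kv7 blocker XE-991.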

Wistar rats = assay: Amygdala-kindling rat model; format: in vivo; details: formulation 90% MC 0.5% + 10% PEG400
Protocol: Formulation and Administration.
Compounds were formulated in a 10% polyethylene glycol 400 (PEG 400)/90% aqueous solution of 0.5% methylcellulose (MC 0.5%). Firstly drugs are dissolved in PEG 400 and then suspended in MC 0.5% for oral gavage at X mg/5 mL/kg (X see table).
Amygdala-Kindling Rat Model:
1. Procedure: Adult male Wistar rats (Harlan Laboratories, Netherlands, or Charles Rivers, Germany; body weight 300-350 g) were stereotaxically implanted with twisted bipolar plastic-coated stainless steel electrode (MS333-2-BIU 10 mm, Plastics One) into the right basolateral amygdala under isoflurane anesthesia. To place the electrode, trepanations were made in the skull and the electrode was lowered into the right basolateral amygdala (from bregma: anteriorposterior (AP): −2.5 mm, medio-lateral (ML): −3.5 mm, dorso-ventral (DV): −8.6 mm; α=10°) and secured to the skull with screws and dental acrylate. After one week of recovery, they were handled daily and habituated over one week to the kindling set-up. Kindling procedure: For a kindling session each rat was placed individually into a smooth acrylic plastic, round-bottomed bowl (Ø 36 cm, height 36 cm, BASi movement-responsive caging system) and its intracranial implanted electrode was connected to the stimulator (STG4008, Multichannel Systems GmbH) and the recording devices (PowerLab 8/35, ADInstruments Ltd) via a cable (335-340/3 (C), Plastics One). For the kindling procedure, each rat was exposed once daily to an electrical stimulation and the behavioral symptoms of the evoked seizure were observed and classified according to the modified Racine scale (stage 0, arrest, wet dog shakes, normal behaviour; stage 1, facial twitches: nose, lips, eyes; stage 2, chewing, head nodding; stage 3, forelimb clonus; stage 4, rearing, falling on forelimbs; stage 5, rearing, falling on side or back, rolling). The electrical stimulus consists of a 1s-train of 50 Hz square-wave biphasic pulses of 1-ms duration at an intensity of 400 μA (suprathreshold intensity). […] Data Scoring and analysis. The duration of electroencephalographic seizures (afterdischarge, AD) was recorded using LabChart7 Pro software (ADlnstruments Ltd). Simultaneously, videos were recorded to evaluate seizure stage (SS).
2. Compound testing: Acute drug effects were evaluated in groups of 6-8 fully kindled rats in a randomized cross-over design with 48 h between drug and vehicle applications. Following oral administration of drug or vehicle, drug testing included determination of the afterdischarge threshold (the minimal stimulation intensity necessary to evoke an afterdischarge (electroencephalographically measured neuronal hyper-synchronous activity with an amplitude 2-times higher than baseline amplitude and a frequency of ≥1 Hz) of at least 3 sec duration) and monitoring electroencephalographic and behavioral correlates of the evoked seizure at ADT (afterdischarge threshold), including AD duration and SS, by a experimenter blind to treatment assignment.

[2] = 20 min, AUC of fluorescence measured 20 min after compound addition, read-out: FLIPR: IC50 [nM] 20 min
[3] = Acute phase, ratio of AUC fluorescence before and after compound addition, read-out: FLIPR: IC50 [nM] acute
[4] = 100 mg/kg po, time of challenge 1 h
[5] = 10 mg/kg po, time of challenge 15 min
[6] = 30 mg/kg po, time of challenge 1 h

O=C(NCc1cccc(C(F)(F)F)c1)NC1CC2(CC2)C1 [Example 2, 1-Spiro[2.3]hex-5-yl-3-(3-trifluoromethyl-benzyl)-urea] was tested. Which IC50 [1, 2] did it give?
Its IC50 is 86 nM.

And the IC50 [1, 3]?
Its IC50 is 63 nM.

And the “AD duration [% vs veh]” value (Wistar rats; [4])?
Its value is −93 % vs veh.

And the “Seizure stage [% vs veh]” value (Wistar rats; [4])?
The value was −88 % vs veh.

With O=C(NC1CC2(CC2)C1)N[C@@H](CO)c1cccc(C(F)(F)F)c1 (single isomer, unassigned) [Example 186] as the compound, how does the IC50 [1, 2] read?
The IC50 was 40 nM.

And the IC50 [1, 3]?
The IC50 was 20 nM.

What about the “AD duration [% vs veh]” value (Wistar rats; [5]) of the same compound?
The value was −87 % vs veh.

What about the “Seizure stage [% vs veh]” value (Wistar rats; [5]) of the same compound?
Its value is −50 % vs veh.

Which IC50 [1, 2] does the source give for O=C(NCc1cc(OCC(F)(F)F)ncn1)NC1CC2(CCC2)C1 [Example 59, 1-Spiro[3.3]hept-2-yl-3-[6-(2,2,2-trifluoro-ethoxy)-pyrimidin-4-ylmethyl]-urea] here?
Its IC50 is 61 nM.

What about the IC50 [1, 3] of the same compound?
The IC50 was 45 nM.

And the “AD duration [% vs veh]” value (Wistar rats; [6])?
Its value is −96 % vs veh.

And the “Seizure stage [% vs veh]” value (Wistar rats; [6])?
Its value is −83 % vs veh.
